Laboratory results from article PMC6886721 (Journal of medicinal chemistry, 2019).
Where a SMILES comes first, the peptide text is derived from it. [ ]: non-standard residue; d: D form. Dab = NCC[C@H](N)C(=O)O; Dap = NC[C@H](N)C(=O)O

Key:
[1] = RP-HPLC temperature profiling, self-association; format: physicochemical; conditions: temperature at which maximum retention time is observed over 5–77 °C, Zorbax 300 SB-C8, 0.5% acetonitrile/min, 0.30 mL/min, TFA pH 2
[2] = Circular dichroism, helical structure; format: physicochemical; conditions: for [θ]222, aqueous pH 7 / [θ]222, 50% TFE: CD, 222 nm; for [θ]222, aqueous pH 7 / [θ]222, 50% TFE / % helix, aqueous pH 7: 25 °C; for [θ]222, aqueous pH 7: 100 mM KCl, 50 mM Na2HPO4/NaH2PO4, pH 7.0; for [θ]222, 50% TFE: pH 7.0 buffer containing 50% TFE; for % helix induced: increase in molar ellipticity (as a percentage) in the presence of 50% TFE; for % helix, aqueous pH 7: relative to the molar ellipticity of the peptide in 50% TFE
[3] = tested on: human red blood cells; experiment: Hemolytic activity; format: cell-based; conditions: for HC50: pH 7.4

Compound | Tp [1] [°C] | [θ]222, aqueous pH 7 [2] | [θ]222, 50% TFE [2] | % helix induced [2] [%] | % helix, aqueous pH 7 [2] [%] | HC50 fold improvement [3] | HC50 [3] [µg/mL]
CC(=O)N[C@H](CCCCN)C(=O)N[C@H](CC(C)C)C(=O)N[C@@H](CCN)C(=O)N[C@H](CO)C(=O)N[C@H](CC(C)C)C(=O)N[C@H](CC(C)C)C(=O)N[C@@H](CCN)C(=O)N[C@@H](C(=O)N[C@H](CC(C)C)C(=O)N[C@H](CO)C(=O)N[C@@H](CCN)C(=O)N[C@H](C)C(=O)N[C@H](C)C(=O)N[C@H](C)C(=O)N[C@H](C)C(=O)N[C@H](C)C(=O)N[C@H](CC(C)C)C(=O)N[C@@H](CCN)C(=O)N[C@@H](C(=O)N[C@H](CC(C)C)C(=O)N[C@H](CC(C)C)C(=O)N[C@@H](CCN)C(=O)N[C@H](C)C(=O)N[C@H](CC(C)C)C(=O)N[C@H](CO)C(=O)N[C@@H](CCN)C(N)=O)[C@H](C)O)[C@H](C)O [D86(K13A/K16A)-(Lys^1-6 Dab-1)] (Ac-[dK][dL][Dab][dS][dL][dL][Dab][dT][dL][dS][Dab][dA][dA][dA][dA][dA][dL][Dab][dT][dL][dL][Dab][dA][dL][dS][Dab]-NH2) | 31.0 | 2308 mdeg cm^2/(dmol × res) | 18731 mdeg cm^2/(dmol × res) | 88 | 12 |  | 
CC(=O)N[C@H](CCCCN)C(=O)N[C@H](CC(C)C)C(=O)N[C@@H](CCN)C(=O)N[C@H](CO)C(=O)N[C@H](CC(C)C)C(=O)N[C@H](CC(C)C)C(=O)N[C@@H](CCN)C(=O)N[C@@H](C(=O)N[C@H](CC(C)C)C(=O)N[C@H](CO)C(=O)N[C@@H](CCN)C(=O)N[C@H](C)C(=O)N[C@H](CCCCN)C(=O)N[C@H](C)C(=O)N[C@H](C)C(=O)N[C@H](CCCCN)C(=O)N[C@H](CC(C)C)C(=O)N[C@@H](CCN)C(=O)N[C@@H](C(=O)N[C@H](CC(C)C)C(=O)N[C@H](CC(C)C)C(=O)N[C@@H](CCN)C(=O)N[C@H](C)C(=O)N[C@H](CC(C)C)C(=O)N[C@H](CO)C(=O)N[C@@H](CCN)C(N)=O)[C@H](C)O)[C@H](C)O [D86(Lys^1-6 Dab-1)] (Ac-[dK][dL][Dab][dS][dL][dL][Dab][dT][dL][dS][Dab][dA][dK][dA][dA][dK][dL][Dab][dT][dL][dL][Dab][dA][dL][dS][Dab]-NH2) | 5.0 | 1769 mdeg cm^2/(dmol × res) | 27923 mdeg cm^2/(dmol × res) | 94 | 6 | >186 | >2000
CC(=O)N[C@H](CCCCN)C(=O)N[C@H](CC(C)C)C(=O)N[C@@H](CCN)C(=O)N[C@H](CO)C(=O)N[C@H](CC(C)C)C(=O)N[C@H](CC(C)C)C(=O)N[C@@H](CCN)C(=O)N[C@@H](C(=O)N[C@H](CC(C)C)C(=O)N[C@H](CO)C(=O)N[C@@H](CCN)C(=O)N[C@H](C)C(=O)N[C@H](CCCCN)C(=O)N[C@H](C)C(=O)N[C@H](C)C(=O)N[C@H](CCCCN)C(=O)N[C@H](CC(C)C)C(=O)N[C@@H](CCN)C(=O)N[C@@H](C(=O)N[C@H](CC(C)C)C(=O)N[C@H](CC(C)C)C(=O)N[C@@H](CCN)C(=O)N[C@H](C)C(=O)N[C@H](CC(C)C)C(=O)N[C@H](CO)C(=O)N[C@H](CO)C(N)=O)[C@H](C)O)[C@H](C)O [D102(Lys^1Ser^26-5 Dab-1)] (Ac-[dK][dL][Dab][dS][dL][dL][Dab][dT][dL][dS][Dab][dA][dK][dA][dA][dK][dL][Dab][dT][dL][dL][Dab][dA][dL][dS][dS]-NH2) |  |  |  |  |  | >177 | >2000
CC(=O)N[C@H](CCCCN)C(=O)N[C@H](CC(C)C)C(=O)N[C@@H](CN)C(=O)N[C@H](CO)C(=O)N[C@H](CC(C)C)C(=O)N[C@H](CC(C)C)C(=O)N[C@@H](CN)C(=O)N[C@@H](C(=O)N[C@H](CC(C)C)C(=O)N[C@H](CO)C(=O)N[C@@H](CN)C(=O)N[C@H](C)C(=O)N[C@H](C)C(=O)N[C@H](C)C(=O)N[C@H](C)C(=O)N[C@H](C)C(=O)N[C@H](CC(C)C)C(=O)N[C@@H](CN)C(=O)N[C@@H](C(=O)N[C@H](CC(C)C)C(=O)N[C@H](CC(C)C)C(=O)N[C@@H](CN)C(=O)N[C@H](C)C(=O)N[C@H](CC(C)C)C(=O)N[C@H](CO)C(=O)N[C@@H](CN)C(N)=O)[C@H](C)O)[C@H](C)O [D105(K13A/K16A)-(Lys^1-6 Dap-1)] (Ac-[dK][dL][Dap][dS][dL][dL][Dap][dT][dL][dS][Dap][dA][dA][dA][dA][dA][dL][Dap][dT][dL][dL][Dap][dA][dL][dS][Dap]-NH2) | 39.0 | 9577 mdeg cm^2/(dmol × res) | 18038 mdeg cm^2/(dmol × res) | 47 | 53 |  | 
CC(=O)N[C@H](CCCCN)C(=O)N[C@H](CC(C)C)C(=O)N[C@@H](CN)C(=O)N[C@H](CO)C(=O)N[C@H](CC(C)C)C(=O)N[C@H](CC(C)C)C(=O)N[C@@H](CN)C(=O)N[C@@H](C(=O)N[C@H](CC(C)C)C(=O)N[C@H](CO)C(=O)N[C@@H](CN)C(=O)N[C@H](C)C(=O)N[C@H](CCCCN)C(=O)N[C@H](C)C(=O)N[C@H](C)C(=O)N[C@H](CCCCN)C(=O)N[C@H](CC(C)C)C(=O)N[C@@H](CN)C(=O)N[C@@H](C(=O)N[C@H](CC(C)C)C(=O)N[C@H](CC(C)C)C(=O)N[C@@H](CN)C(=O)N[C@H](C)C(=O)N[C@H](CC(C)C)C(=O)N[C@H](CO)C(=O)N[C@@H](CN)C(N)=O)[C@H](C)O)[C@H](C)O [D105(Lys^1-6 Dap-1)] (Ac-[dK][dL][Dap][dS][dL][dL][Dap][dT][dL][dS][Dap][dA][dK][dA][dA][dK][dL][Dap][dT][dL][dL][Dap][dA][dL][dS][Dap]-NH2) | 16.9 | 5961 mdeg cm^2/(dmol × res) | 24192 mdeg cm^2/(dmol × res) | 75 | 25 | >287 | >3000
